In this test the test system is PGF2 alpha. Briefly: Inhibition of prostaglandin F2 alpha levels in UVB-exposed keratinocytes (ELISA). It counts as cell-based. As to conditions: UVB-induced human keratinocytes; PGF2 alpha measured by ELISA 24 hours post-treatment; FIG. 1. The method, then: Human keratinocytes were harvested and exposed to with UVB light to induce PGF2 alpha release. Following exposure to UVB irradiation, the cells were treated with a composition comprising 1% 4-ethoxybenzaldehyde, Indomethacin (positive control) or left untreated (negative control). After 24 hours post-treatment, PGF2 alpha levels were measured by ELISA analysis.
Background: ELISA stands for enzyme-linked immunosorbent assay.

Turning to `CCOc1ccc(C=O)cc1` [4-ethoxybenzaldehyde], the “inhibition of PGF2 alpha” value is reported as “dose-dependent inhibition”.
